According to ChEMBL document CHEMBL1151561, “Benzopyran sulfoxide derivatives as New potassium channel activator” (Bioorg Med Chem Lett, 1993):

Organism: Canis familiaris
Experiment: The compound was tested for its relaxation activity on smooth muscle of canine mesenteric artery
Format: functional
Settings: Canis lupus familiaris

## CC1(C)C=C(C2CCC[S+]2[O-])c2cc([N+](=O)[O-])ccc2O1 (stereo not given)
  EC50: 1960 nM

## CC1(C)C=C(c2cccc[n+]2[O-])c2cc(C#N)ccc2O1
  EC50: 222 nM

## CC1(C)C=C(c2cccc[n+]2[O-])c2cc([N+](=O)[O-])ccc2O1
  EC50: 61.8 nM

## CC1(C)C[C@](O)(C2CCC[S+]2[O-])c2cc([N+](=O)[O-])ccc2O1 (stereo not given in full)
  EC50: 12200 nM

## CC1(C)Oc2ccc(C#N)cc2[C@@H](N2CCCC2=O)[C@@H]1O [CROMAKALIM]
  EC50: 1960 nM
